Results: US7160867B2 (Isotechnika, Inc., priority 2003, dated 2007)
“Also recorded” adds a separate entry of the source.

Legend:
[1] = Stability toward hydrolysis in acidic media; type: physicochemical; settings: 70/30 methanol/0.1N HCl (pH 1.5); free rapamycin by HPLC at 1 hour
[2] = Hydrolysis of rapamycin carbohydrate derivatives in human whole blood; type: in vitro ADME; settings: spiked in human whole blood; free rapamycin by HPLC at 1 hour
Sprague-Dawley rats = test: Serum cholesterol levels in rats; type: in vivo; settings: 2.5 mg/kg/day for 12 days
Description: Cholesterol levels were measured at the 24-hour trough level on day 11.

Beagle dogs = test: Gastrointestinal tolerability in beagle dogs
[3] = test system: heterotopic heart allografts; test: Graft survival of heterotopic heart allografts in rats; type: in vivo, Wistar Furth rats to Lewis rats
Description: If graft dysfunction was noted during the 30-day post-transplantation period, the animal was sacrificed. If the animal survived longer than 30 days post-transplantation, the test and control articles were discontinued and the animal was allowed to continue until graft dysfunction or up to 100 days post-transplantation.

washed human platelets = test: Washed human platelet aggregation assay; settings: 25 μg/ml, 2 μM ADP, after 8 minutes, FIG. 11
[4] = Pharmacokinetic profiles in rats after oral dosing (rapamycin in whole blood by LC/MS); type: in vivo, Sprague Dawley rats; settings: 2.5 or 10 mg/kg
Description: The pharmacokinetic profiles in rats of selected rapamycin carbohydrate derivatives were determined to investigate the ability of the derivatives to deliver free rapamycin into the bloodstream in vivo. […] Whole blood was extracted via jugular bleed over 24 hours and frozen at −20° C. until analysis. Whole blood was analyzed by Liquid Chromatography Mass Spectrometry for the presence of rapamycin.

[5] = test system: primary blood lymphocyte cultures (PBMC); test: In vitro immunosuppressive activity, PBMC proliferation (alamar blue); type: cell-based; settings: 3-day culturing, FIG. 5
[6] = in plasma and in low and neutral pH buffers at 37° C.; cited from earlier work
[7] = [14C]-rapamycin, healthy male volunteers; cited from earlier work
[8] = 2.5 mg/kg/day oral gavage, day -3 to day 30, N = 6 (derivative n = 5)

Compound | Extent of Hydrolysis (%) [1] [%] | Extent of Hydrolysis (%) [2] [%] | serum cholesterol level relative to vehicle control group (Sprague-Dawley rats; 24-hour trough on day 11, FIG. 9) | serum cholesterol level relative to rapamycin group (Sprague-Dawley rats; 24-hour trough on day 11, p<0.01, FIG. 9) | Observations (Beagle dogs; beagle dog 4, oral dose 1 mg/kg, rapamycin given one week after the derivative, 1 mg/kg) | Observations (Beagle dogs; beagle dog 4, oral dose 1 mg/kg, rapamycin given one week after the derivative, listed as 42-O-(D-fructosylcarbonyl)rapamycin, 1 mg/kg) | Observations (Beagle dogs; beagle dogs, single oral dose 10 mg/kg, 10 mg/kg) | Observations (Beagle dogs; beagle dogs, single oral dose 10 mg/kg, listed as 42-O-(D-fructosylcarbonyl)rapamycin, 10 mg/kg) | prolonged survival of the graft over the vehicle control ([3]; 2.5 mg/kg/day) [%] | Average Survival Time (days post-transplant) Mean ± SEM [3, 8] [days post-transplant] | prolonged survival of the graft over the vehicle control ([3]; 10 mg/kg/day) [%] | Average Survival Time (days post-transplant) Mean ± SEM ([3]; 10 mg/kg/day oral gavage, day -3 to day 30, N = 6) [days post-transplant] | platelet aggregation (washed human platelets) | time to maximum concentration of rapamycin in blood ([4]; FIG. 6) | cell proliferation inhibition / immunosuppressive activity [5] | half-life of degradation [6] | share of the total radioactivity in blood [7] | time to maximum concentration of rapamycin in blood ([4]; FIGS. 6 and 7)
CO[C@H]1C[C@@H]2CC[C@@H](C)[C@@](O)(O2)C(=O)C(=O)N2CCCC[C@H]2C(=O)O[C@H]([C@H](C)C[C@@H]2CC[C@@H](O)[C@H](OC)C2)CC(=O)[C@H](C)/C=C(\C)[C@@H](OC(=O)OCC2(O)OC[C@@H](O)[C@@H](O)[C@@H]2O)[C@@H](OC)C(=O)[C@H](C)C[C@H](C)/C=C/C=C/C=C/1C (stereo partly drawn) [31-O-(D-Fructosylcarbonyl)rapamycin] | <1 | 23 ± 0.5 |  |  |  |  |  |  |  |  |  |  |  |  |  |  |  | 
CO[C@H]1C[C@@H]2CC[C@@H](C)[C@@](O)(O2)C(=O)C(=O)N2CCCC[C@H]2C(=O)O[C@H]([C@H](C)C[C@@H]2CC[C@@H](OC(=O)OCC3(O)OC[C@@H](O)[C@@H](O)[C@@H]3O)[C@H](OC)C2)CC(=O)[C@H](C)/C=C(\C)[C@@H](O)[C@@H](OC)C(=O)[C@H](C)C[C@H](C)/C=C/C=C/C=C/1C (stereo partly drawn) [42-O-(D-Fructosylcarbonyl)rapamycin] | <1 | 28 ± 2 | not significantly different | significantly lower | Lethargic; also recorded: Recovered | slight lethargy | Normal | no overt physical changes | 214 | 41 ± 4 | 341 | 57 ± 4 | does not exhibit a measurable effect | approximately 3 hours | equivalent to rapamycin |  |  | 
CO[C@H]1C[C@@H]2CC[C@@H](C)[C@@](O)(O2)C(=O)C(=O)N2CCCC[C@H]2C(=O)O[C@H]([C@H](C)C[C@@H]2CC[C@@H](O)[C@H](OC)C2)CC(=O)[C@H](C)/C=C(\C)[C@@H](O)[C@@H](OC)C(=O)[C@H](C)C[C@H](C)/C=C/C=C/C=C/1C [Rapamycin] |  |  |  |  |  |  |  |  |  | 39 ± 4 |  |  |  |  |  | less than 10 hours | approximately 35% | approximately 30 minutes
